Tested on: HCC78 non-small cell lung cancer cells
Test: HCC78 cell proliferation assay
Type: cell-based
Conditions: Homo sapiens, HCC78, 96 h; -log EC50 (M); 4 days, MTT; read-out: HCC-78 PROL pEC50 (converted)
Method: Approximately 1000 HCC78 non-small cell lung cancer cells in 180 μl of cell culture medium (RPMI-1640, 10% FBS, 2 mM L-Glutamine, 10 mM Hepes, 1 mM sodium pyruvate, 4.5 g/L glucose, 1.5 g/L sodium bicarbonate, 25 μg/ml Gentamycin) were seeded in each well of a 96-well polystyrene, tissue-culture treated plate and incubated at 37° C. and 5% CO2. After 24 hours, compounds were diluted in cell culture medium from which 20 μl was added to the wells containing cells and incubated for 4 days at 37° C. and 5% CO2. A 5 mg/ml solution of the tetrazolium dye MTT was prepared in PBS (phosphate-buffered saline) and 25 μl was added to each well. After 2 hours the medium was removed and replaced by 125 μL of 4/1 DMSO/glycine buffer (0.1M glycine, 0.1M NaCl, pH 10.5) before absorbance was determined at 538 nm.

SMILES | EC50 [M]
CC(C)c1ccc(COc2ccc(-c3c(-c4ccncc4)nn4c3NCC4)cc2)cc1 [Co. 1] | 7.94e-07
c1cc(-c2nn3c(c2-c2ccc(OCc4ccc(C5CC5)cc4)cc2)NCC3)ccn1 [Co. 7] | 6.31e-07
CC(C)c1ccc(COc2ccc(-c3c(-c4ccncc4)nn4c3N(CCO)CC4)cc2)cc1 [Co. 10] | 2.51e-06
CC(C)c1ccc(COc2ccc(-c3c(-c4ccncc4)nn4c3NC(=O)C4)cc2)cc1 [Co. 13] | 5.01e-07
CC(C)c1ccc(COc2ccc(-c3c(-c4ccncc4)nn4c3NC(=O)CC4)cc2)cc1 [Co. 16] | 1e-07
CC(C)c1ccc(COc2ccc(-c3c(-c4ccncc4)nn4c3NCCC4)cc2)cc1 [Co. 17] | 1e-07

Molecular target: Ba/F3 cells containing Ros1 L2026M (Homo sapiens, UniProt P08922, L2026M, cells depend on it, form not given)
Sequence (P08922 whole entry L2026M, form open): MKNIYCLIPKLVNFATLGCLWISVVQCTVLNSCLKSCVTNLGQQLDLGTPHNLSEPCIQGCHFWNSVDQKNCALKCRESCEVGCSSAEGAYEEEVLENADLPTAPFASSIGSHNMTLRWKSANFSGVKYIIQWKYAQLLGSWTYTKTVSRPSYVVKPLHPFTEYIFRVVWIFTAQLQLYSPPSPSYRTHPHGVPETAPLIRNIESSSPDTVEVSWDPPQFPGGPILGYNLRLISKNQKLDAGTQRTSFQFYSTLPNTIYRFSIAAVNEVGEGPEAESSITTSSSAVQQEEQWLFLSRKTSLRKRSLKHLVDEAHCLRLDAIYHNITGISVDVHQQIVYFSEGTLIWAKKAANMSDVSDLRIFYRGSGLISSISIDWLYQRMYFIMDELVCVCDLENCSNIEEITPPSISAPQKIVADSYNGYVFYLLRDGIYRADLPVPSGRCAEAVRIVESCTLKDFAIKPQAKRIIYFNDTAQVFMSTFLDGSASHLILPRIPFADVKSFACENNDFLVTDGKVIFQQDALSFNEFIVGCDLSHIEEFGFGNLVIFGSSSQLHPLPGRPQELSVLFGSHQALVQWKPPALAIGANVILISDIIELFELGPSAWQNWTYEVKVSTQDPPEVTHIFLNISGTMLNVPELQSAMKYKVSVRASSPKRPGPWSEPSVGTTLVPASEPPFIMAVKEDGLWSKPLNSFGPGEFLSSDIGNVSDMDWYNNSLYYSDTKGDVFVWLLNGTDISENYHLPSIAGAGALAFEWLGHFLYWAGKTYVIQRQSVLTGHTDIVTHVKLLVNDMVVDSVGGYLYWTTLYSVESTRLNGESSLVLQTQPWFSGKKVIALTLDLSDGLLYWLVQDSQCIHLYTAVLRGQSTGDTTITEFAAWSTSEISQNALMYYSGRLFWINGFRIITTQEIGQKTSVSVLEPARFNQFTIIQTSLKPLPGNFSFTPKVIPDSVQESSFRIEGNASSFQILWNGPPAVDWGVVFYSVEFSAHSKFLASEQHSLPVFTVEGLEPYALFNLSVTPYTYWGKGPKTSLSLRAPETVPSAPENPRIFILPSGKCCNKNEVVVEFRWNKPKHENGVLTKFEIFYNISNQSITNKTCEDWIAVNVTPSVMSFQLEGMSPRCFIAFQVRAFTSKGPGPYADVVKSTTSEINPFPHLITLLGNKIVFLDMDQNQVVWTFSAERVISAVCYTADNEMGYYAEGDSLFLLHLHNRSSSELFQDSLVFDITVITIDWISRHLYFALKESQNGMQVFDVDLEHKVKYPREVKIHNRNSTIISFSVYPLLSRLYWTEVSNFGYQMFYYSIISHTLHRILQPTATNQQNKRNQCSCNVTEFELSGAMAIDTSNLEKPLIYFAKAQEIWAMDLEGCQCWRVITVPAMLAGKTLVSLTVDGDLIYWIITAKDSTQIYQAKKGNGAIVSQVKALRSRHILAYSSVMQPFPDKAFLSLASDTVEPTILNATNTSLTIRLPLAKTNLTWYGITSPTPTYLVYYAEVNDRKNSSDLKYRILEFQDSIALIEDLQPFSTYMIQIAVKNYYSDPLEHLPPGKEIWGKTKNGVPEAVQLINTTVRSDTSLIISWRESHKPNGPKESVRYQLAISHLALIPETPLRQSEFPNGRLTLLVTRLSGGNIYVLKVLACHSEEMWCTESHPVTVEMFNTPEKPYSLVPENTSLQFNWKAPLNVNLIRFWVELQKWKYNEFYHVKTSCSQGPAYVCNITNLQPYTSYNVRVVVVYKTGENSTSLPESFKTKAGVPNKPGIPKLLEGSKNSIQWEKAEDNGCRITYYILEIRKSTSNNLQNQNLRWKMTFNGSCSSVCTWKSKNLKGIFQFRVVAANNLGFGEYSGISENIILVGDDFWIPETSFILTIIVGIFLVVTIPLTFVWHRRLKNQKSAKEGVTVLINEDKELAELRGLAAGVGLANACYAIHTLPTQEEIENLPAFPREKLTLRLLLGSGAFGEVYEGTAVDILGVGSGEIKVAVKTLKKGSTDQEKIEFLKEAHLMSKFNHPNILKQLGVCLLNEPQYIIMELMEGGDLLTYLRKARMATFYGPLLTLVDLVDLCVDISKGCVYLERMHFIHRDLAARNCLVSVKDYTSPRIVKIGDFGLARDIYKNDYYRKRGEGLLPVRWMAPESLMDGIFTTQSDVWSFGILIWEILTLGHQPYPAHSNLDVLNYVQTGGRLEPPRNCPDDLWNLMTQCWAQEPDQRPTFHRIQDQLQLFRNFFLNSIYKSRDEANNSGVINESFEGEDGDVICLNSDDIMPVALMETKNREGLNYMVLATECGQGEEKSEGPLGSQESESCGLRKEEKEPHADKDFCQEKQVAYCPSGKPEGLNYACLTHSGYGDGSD
Test: Ba/F3-Ros1 cell proliferation assay, L2026M gatekeeper mutant
Type: cell-based, murine
Conditions: -log IC50 (M), no IL-3
Method: (§1) This assay was carried out with Ba/F3 cells containing three different versions of Ros1: the wild-type protein, protein with a mutation at the gatekeeper residue (L2026M), and protein with a mutation identified in a tumor from a patient that became resistant to crizotinib (Xalkori®) treatment (G2032R). Compounds were solubilized in 100% DMSO (dimethyl sulfoxide) and sprayed into polystyrene, tissue culture treated 384-well plates. A 50 μl volume of cell culture medium (phenol red free RPMI-1640, 10% FBS (fetal bovine serum), 2 mM L-Glutamine) containing 20000 Ba/F3-Ros1 cells was added to each well and the plates were placed in an incubator at 37° C. and 5% CO2. After 24 hours, 10 μl of Alamar Blue solution (0.5 mM K3Fe(CN)6, 0.5 mM K4Fe(CN)6, 0.15 mM Resazurin and 100 mM Phosphate Buffer) was added to the wells, incubated for 4 hours at 37° C. and 5% CO2 before RFU's (Relative Fluorescence Units) (ex. 540 nm., em. 590 nm.) were measured in a fluorescence plate reader.

SMILES | Ba/F3 Ros1 L2026M (-IL-3) pIC50
CC(C)c1ccc(COc2ccc(-c3c(-c4ccncc4)nn4c3NCC4)cc2)cc1 [Co. 1] | ~6.7
c1cc(-c2nn3c(c2-c2ccc(OCc4ccc(C5CC5)cc4)cc2)NCC3)ccn1 [Co. 7] | 7.5
CC(C)c1ccc(COc2ccc(-c3c(-c4ccncc4)nn4c3N(CCO)CC4)cc2)cc1 [Co. 10] | 6.8
CC(C)c1ccc(COc2ccc(-c3c(-c4ccncc4)nn4c3NC(=O)C4)cc2)cc1 [Co. 13] | 6.7
CC(C)c1ccc(COc2ccc(-c3c(-c4ccncc4)nn4c3NC(=O)CC4)cc2)cc1 [Co. 16] | 7.3
CC(C)c1ccc(COc2ccc(-c3c(-c4ccncc4)nn4c3NCCC4)cc2)cc1 [Co. 17] | 6.9

Molecular target: Ba/F3 cells containing Ros1 G2032R (Homo sapiens, UniProt P08922, G2032R, cells depend on it, form not given)
Sequence (P08922 whole entry G2032R, form open): as the sequence (P08922 whole entry L2026M, form open) above, with M2026L, G2032R counted along it
Test: Ba/F3-Ros1 cell proliferation assay, G2032R mutant
Type: cell-based, murine
Conditions: -log IC50 (M), no IL-3
Method: as §1

SMILES | Ba/3 Ros1 G2032R (-IL-3) pIC50
CC(C)c1ccc(COc2ccc(-c3c(-c4ccncc4)nn4c3NCC4)cc2)cc1 [Co. 1] | 6.4
c1cc(-c2nn3c(c2-c2ccc(OCc4ccc(C5CC5)cc4)cc2)NCC3)ccn1 [Co. 7] | 6.2
CC(C)c1ccc(COc2ccc(-c3c(-c4ccncc4)nn4c3N(CCO)CC4)cc2)cc1 [Co. 10] | 6.4

Tested on: Ba/F3 cells containing Ros1 wild-type protein + IL-3
Test: Ba/F3-Ros1 cell proliferation counter-screen, wild-type Ros1 in the presence of murine IL-3
Type: cell-based
Conditions: Mus musculus, BaF3, 24 h; -log IC50 (M); wild-type Ros1, 10 ng/ml murine IL-3 (counter-screen); read-out: BaF3-ROS1 + IL3 pIC50 (converted)
Method: as §1
As a counter-screen the same experiment was performed for the wild-type protein in the presence of 10 ng/ml murine IL-3.

SMILES | CC50 [M]
CC(C)c1ccc(COc2ccc(-c3c(-c4ccncc4)nn4c3NCC4)cc2)cc1 [Co. 1] | 5.01e-06
c1cc(-c2nn3c(c2-c2ccc(OCc4ccc(C5CC5)cc4)cc2)NCC3)ccn1 [Co. 7] | > 1e-05
CC(C)c1ccc(COc2ccc(-c3c(-c4ccncc4)nn4c3N(CCO)CC4)cc2)cc1 [Co. 10] | > 1e-05
CC(C)c1ccc(COc2ccc(-c3c(-c4ccncc4)nn4c3NC(=O)C4)cc2)cc1 [Co. 13] | > 1e-05
CC(C)c1ccc(COc2ccc(-c3c(-c4ccncc4)nn4c3NC(=O)CC4)cc2)cc1 [Co. 16] | > 1e-05
CC(C)c1ccc(COc2ccc(-c3c(-c4ccncc4)nn4c3NCCC4)cc2)cc1 [Co. 17] | > 1e-05

Molecular target: T1, Ros1 enzyme (Homo sapiens, UniProt P08922)
T1 construct: 0.5 μg/ml Ros1 enzyme
T1 sequence (P08922 28-2347): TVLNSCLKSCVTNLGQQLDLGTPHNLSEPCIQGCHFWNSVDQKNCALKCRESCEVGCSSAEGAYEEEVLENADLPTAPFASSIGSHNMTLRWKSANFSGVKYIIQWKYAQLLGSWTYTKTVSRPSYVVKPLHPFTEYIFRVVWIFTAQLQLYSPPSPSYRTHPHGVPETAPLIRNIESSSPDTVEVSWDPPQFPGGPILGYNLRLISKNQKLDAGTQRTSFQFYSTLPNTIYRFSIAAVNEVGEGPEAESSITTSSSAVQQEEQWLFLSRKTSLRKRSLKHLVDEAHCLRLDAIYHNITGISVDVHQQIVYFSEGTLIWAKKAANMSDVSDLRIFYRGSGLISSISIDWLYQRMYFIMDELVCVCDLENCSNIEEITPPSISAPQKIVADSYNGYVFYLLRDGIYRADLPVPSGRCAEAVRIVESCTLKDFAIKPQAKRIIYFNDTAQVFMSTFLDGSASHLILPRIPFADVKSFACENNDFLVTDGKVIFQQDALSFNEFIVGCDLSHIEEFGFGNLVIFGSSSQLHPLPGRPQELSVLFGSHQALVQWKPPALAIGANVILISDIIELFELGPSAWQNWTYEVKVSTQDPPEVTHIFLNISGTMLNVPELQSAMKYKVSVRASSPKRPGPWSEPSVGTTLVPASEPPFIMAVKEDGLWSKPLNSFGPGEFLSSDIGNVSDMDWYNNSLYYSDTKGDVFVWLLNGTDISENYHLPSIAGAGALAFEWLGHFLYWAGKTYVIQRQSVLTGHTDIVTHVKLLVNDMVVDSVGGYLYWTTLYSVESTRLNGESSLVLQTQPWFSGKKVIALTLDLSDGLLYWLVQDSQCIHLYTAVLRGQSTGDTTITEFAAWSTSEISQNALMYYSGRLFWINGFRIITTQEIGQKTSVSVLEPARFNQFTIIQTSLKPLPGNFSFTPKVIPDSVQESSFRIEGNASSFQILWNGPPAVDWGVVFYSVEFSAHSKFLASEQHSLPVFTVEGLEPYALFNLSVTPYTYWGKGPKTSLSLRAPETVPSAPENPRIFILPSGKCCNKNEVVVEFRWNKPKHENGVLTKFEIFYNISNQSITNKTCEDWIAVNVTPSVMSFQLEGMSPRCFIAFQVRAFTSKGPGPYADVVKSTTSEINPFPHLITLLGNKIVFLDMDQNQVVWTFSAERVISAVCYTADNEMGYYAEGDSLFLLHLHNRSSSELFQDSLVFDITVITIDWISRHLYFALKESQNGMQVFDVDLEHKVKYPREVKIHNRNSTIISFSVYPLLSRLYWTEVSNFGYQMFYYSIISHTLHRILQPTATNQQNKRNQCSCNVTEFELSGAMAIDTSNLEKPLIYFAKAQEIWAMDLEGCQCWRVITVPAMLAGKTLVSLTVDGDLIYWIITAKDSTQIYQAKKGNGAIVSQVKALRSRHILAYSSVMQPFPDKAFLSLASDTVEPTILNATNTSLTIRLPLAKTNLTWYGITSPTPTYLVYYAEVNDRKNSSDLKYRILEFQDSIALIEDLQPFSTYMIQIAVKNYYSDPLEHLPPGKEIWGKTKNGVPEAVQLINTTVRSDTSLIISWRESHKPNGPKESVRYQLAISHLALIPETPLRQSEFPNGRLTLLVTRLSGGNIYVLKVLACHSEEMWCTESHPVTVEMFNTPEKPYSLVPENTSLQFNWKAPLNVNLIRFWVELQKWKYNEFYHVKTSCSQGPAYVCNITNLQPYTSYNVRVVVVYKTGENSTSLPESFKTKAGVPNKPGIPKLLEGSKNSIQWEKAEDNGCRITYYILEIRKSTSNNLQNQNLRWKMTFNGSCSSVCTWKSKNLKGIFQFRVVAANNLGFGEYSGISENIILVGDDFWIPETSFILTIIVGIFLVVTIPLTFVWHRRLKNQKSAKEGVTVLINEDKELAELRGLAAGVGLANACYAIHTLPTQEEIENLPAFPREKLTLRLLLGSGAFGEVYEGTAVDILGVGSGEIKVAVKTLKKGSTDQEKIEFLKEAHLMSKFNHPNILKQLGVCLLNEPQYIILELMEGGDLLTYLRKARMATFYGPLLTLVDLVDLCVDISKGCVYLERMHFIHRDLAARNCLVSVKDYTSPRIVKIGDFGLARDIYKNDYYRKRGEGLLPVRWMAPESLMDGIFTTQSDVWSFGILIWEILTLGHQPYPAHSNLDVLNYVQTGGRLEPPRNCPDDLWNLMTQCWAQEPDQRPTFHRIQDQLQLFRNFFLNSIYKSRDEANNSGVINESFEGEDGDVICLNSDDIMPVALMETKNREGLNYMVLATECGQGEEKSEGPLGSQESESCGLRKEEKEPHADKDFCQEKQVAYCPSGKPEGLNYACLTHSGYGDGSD
Test: Ros1 enzymatic assay
Type: biochemical
Conditions: -log IC50 (M); 20 μM ATP, 120 min at room temperature; read-out: ROS1 pIC50 (converted)
Method: Compounds were spotted onto white 384-well Proxiplate plus plates (Perkin Elmer) to which 5 μl of enzyme mix (0.5 μg/ml Ros1 enzyme, 50 mM Tris-HCl pH7.5, 1 mM EGTA, 10 mM MgCl2, 0.01% Tween-20) and 5 μl of substrate mix (6 μg/ml IRS-Tide [American Peptide Company], 20 μM ATP, 13.33 μCi/ml ATP (adenosine 5′-triphosphate) P^33, 50 mM Tris-HCl pH7.5, 1 mM EGTA (ethylene glycol-bis(2-aminoethylether)-N,N,N′,N′-tetraacetic acid), 10 mM MgCl2, 0.01% Tween-20) were added. After incubation for 120 minutes at room temperature, 10 μl of stop reaction buffer (5 mM EDTA, 50 μM ATP, 0.1% BSA (bovine serum albumin), 0.1% Triton X-100, 50 mM Tris-HCl pH7.5, 1 mM EGTA, 10 mM MgCl2, 0.01% Tween-20) containing 2 mg/ml streptavidin coupled polystyrene imaging beads (Amersham Biosciences) was added and incubated for 15 minutes at room temperature. Plates were centrifuged for 3 minutes at 1500 rpm and signals detected in a LEADseeker imaging system (GE).

SMILES | IC50 [M]
CC(C)c1ccc(COc2ccc(-c3c(-c4ccncc4)nn4c3NCC4)cc2)cc1 [Co. 1] | 1.26e-07
c1cc(-c2nn3c(c2-c2ccc(OCc4ccc(C5CC5)cc4)cc2)NCC3)ccn1 [Co. 7] | 2.51e-07
CC(C)c1ccc(COc2ccc(-c3c(-c4ccncc4)nn4c3N(CCO)CC4)cc2)cc1 [Co. 10] | 1.26e-07
CC(C)c1ccc(COc2ccc(-c3c(-c4ccncc4)nn4c3NC(=O)C4)cc2)cc1 [Co. 13] | 1.58e-07
CC(C)c1ccc(COc2ccc(-c3c(-c4ccncc4)nn4c3NC(=O)CC4)cc2)cc1 [Co. 16] | 1.26e-07
CC(C)c1ccc(COc2ccc(-c3c(-c4ccncc4)nn4c3NCCC4)cc2)cc1 [Co. 17] | 3.98e-08

Tested on: not given
Test: not given
Conditions: not given

SMILES | melting point [°C]
CC(C)c1ccc(COc2ccc(-c3c(-c4ccncc4)nn4c3NCC4)cc2)cc1 [Co. 1] | 156
c1cc(-c2nn3c(c2-c2ccc(OCc4ccc(C5CC5)cc4)cc2)NCC3)ccn1 [Co. 7] | 159
CC(C)c1ccc(COc2ccc(-c3c(-c4ccncc4)nn4c3N(CCO)CC4)cc2)cc1 [Co. 10] | 151
CC(C)c1ccc(COc2ccc(-c3c(-c4ccncc4)nn4c3NC(=O)CC4)cc2)cc1 [Co. 16] | 290
CC(C)c1ccc(COc2ccc(-c3c(-c4ccncc4)nn4c3NCCC4)cc2)cc1 [Co. 17] | 205

Molecular target: Ros pY2274 (Homo sapiens, UniProt P08922)
Test: pROS1 immunofluorescence assay in HCC78 cells
Type: cell-based
Conditions: -log IC50 (M); 4 hours, Ros1 pY2274 normalized to total Ros1
Method: Approximately 20000 HCC78 non-small cell lung cancer cells in 180 μl of cell culture medium (RPMI-1640, 10% FBS, 2 mM L-Glutamine, 10 mM Hepes, 1 mM sodium pyruvate, 4.5 g/L glucose, 1.5 g/L sodium bicarbonate, 25 μg/ml Gentamycin) were seeded in each well of a 96-well polystyrene, poly-D-lysine coated plate and incubated at 37° C. and 5% CO2. After 24 hours, compounds were diluted in cell culture medium from which 20 μl was added to the wells containing cells and incubated for 4 hours at 37° C. and 5% CO2. The medium was removed and the cells were fixed by adding 100 μl of 5% formaldehyde in TBS (tris-buffered saline) (50 mM Tris.HCl, pH 7.4, 150 mM NaCl) and incubating for 15 minutes at room temperature. The formaldehyde was removed and replaced with methanol for 10 minutes at room temperature, after which the cells were washed 3 times with TBS containing 1% Triton X-100 and incubated in Odyssee (Li-Cor) blocking buffer for 1 hour at room temperature. The cells were then incubated with the primary rabbit antibody directed against Ros pY2274 (cst-3078) diluted 1/200 in blocking buffer for 24 hours at room temperature. The cells were washed three times with TBS containing 0.1% Triton X-100 and incubated with a secondary anti-rabbit antibody conjugated to the fluorescent dye Alexafluor 680 in blocking buffer for 1 hour at room temperature. The cells were washed three times with TBS containing 0.1% Triton X-100 and left to dry before measuring RFUs (Relative Fluorescence Units) at 700 nm using a fluorescence imager. The same experiment was performed using total Ros1 antibody (sc-6347) diluted 1/1000 instead of Ros1 pY2274 antibody and an anti-goat antibody conjugated to IRDye800cw as a secondary antibody. RFUs were measured at […]. The signals from total Ros1 detection were used to normalize the Ros1pY2274 values.

SMILES | HCC78 pRos pIC50
CC(C)c1ccc(COc2ccc(-c3c(-c4ccncc4)nn4c3NC(=O)C4)cc2)cc1 [Co. 13] | 6.8
CC(C)c1ccc(COc2ccc(-c3c(-c4ccncc4)nn4c3NC(=O)CC4)cc2)cc1 [Co. 16] | ~5.4
CC(C)c1ccc(COc2ccc(-c3c(-c4ccncc4)nn4c3NCCC4)cc2)cc1 [Co. 17] | 7.6

Tested on: Ba/F3-Ros1 G2032R tumors
Test: Efficacy study in mice bearing Ba/F3-Ros1 G2032R tumors
Type: in vivo, NMRI nude mice
Conditions: 12.5 mg/kg BID, oral gavage, 10 days, 20% cyclodextrin; change in final relative tumor volumes
Method: Approximately 2×10^6 Ba/F3 cells containing G2032R mutant Ros1 were inoculated into the inguinal region of NMRI nude mice. When the resulting tumors reached a size of 250 to 350 mm^3, mice were randomly assigned to the different treatment groups (8 to 12 mice per group). Compounds formulated in 20% cyclodextrin were administered to the mice by oral gavage at various doses for 10-days once (QD) or twice (BID) a day (see table below for administration frequency used in the study). Tumor sizes were determined by caliper measurement on day 1 prior to treatment and then twice weekly for the duration of the study using the commonly following formula: tumor volume (mm^3)=(a×b^2/2); where ‘a’ represents the length, and ‘b’ the width of the tumor. Treatment/control (T/C) ratios were calculated at the end of the study based on the change in final relative tumor volumes.

SMILES | T/C (%)
CC(C)c1ccc(COc2ccc(-c3c(-c4ccncc4)nn4c3NCC4)cc2)cc1 [Co. 1] | 64

Same assay, conditions: 25 mg/kg BID, oral gavage, 10 days, 20% cyclodextrin; change in final relative tumor volumes

SMILES | T/C (%)
CC(C)c1ccc(COc2ccc(-c3c(-c4ccncc4)nn4c3NCC4)cc2)cc1 [Co. 1] | 16

Same assay, conditions: 50 mg/kg BID, oral gavage, 10 days, 20% cyclodextrin; change in final relative tumor volumes

SMILES | T/C (%)
CC(C)c1ccc(COc2ccc(-c3c(-c4ccncc4)nn4c3NCC4)cc2)cc1 [Co. 1] | −18

Molecular target: Ba/F3 cells containing Ros1 wild-type protein (Homo sapiens, UniProt P08922, cells depend on it, form not given)
Sequence (P08922 whole entry, change not shown): as the sequence (P08922 whole entry L2026M, form open) above, with M2026L counted along it
Test: Ba/F3-Ros1 cell proliferation assay, wild-type Ros1, without IL-3
Type: cell-based, murine
Conditions: -log IC50 (M); wild-type Ros1, no IL-3, 24 h, Alamar Blue
Method: as §1

SMILES | BaF3-ROS1 − IL3 pIC50
CC(C)c1ccc(COc2ccc(-c3c(-c4ccncc4)nn4c3NCC4)cc2)cc1 [Co. 1] | 7.0
c1cc(-c2nn3c(c2-c2ccc(OCc4ccc(C5CC5)cc4)cc2)NCC3)ccn1 [Co. 7] | 6.8
CC(C)c1ccc(COc2ccc(-c3c(-c4ccncc4)nn4c3N(CCO)CC4)cc2)cc1 [Co. 10] | 7.1
CC(C)c1ccc(COc2ccc(-c3c(-c4ccncc4)nn4c3NC(=O)C4)cc2)cc1 [Co. 13] | 6.8
CC(C)c1ccc(COc2ccc(-c3c(-c4ccncc4)nn4c3NC(=O)CC4)cc2)cc1 [Co. 16] | 7.0
CC(C)c1ccc(COc2ccc(-c3c(-c4ccncc4)nn4c3NCCC4)cc2)cc1 [Co. 17] | 7.1

Source: patent US10342795B2, “Substituted 4,5,6,7-tetrahydro-pyrazolo[1,5-a]pyrimidine derivatives and 2,3-dihydro-1H-imidazo[1,2-b]pyrazole derivatives as ROS1 inhibitors” (Janssen Pharmaceutica NV, priority 2014, dated 2019)
